Columns and labels:
α1β1γ2 GABA-A receptor = conditions: agonist; nH 1.3
α5β1γ2 GABA-A receptor = conditions: agonist; +50 mV; nH 1.8
human GAD67 (hGAD67) = human GAD67 (hGAD67) (Homo sapiens, UniProt Q99259); test: biochemical
Sequence of human GAD67 (hGAD67) (Q99259 whole entry): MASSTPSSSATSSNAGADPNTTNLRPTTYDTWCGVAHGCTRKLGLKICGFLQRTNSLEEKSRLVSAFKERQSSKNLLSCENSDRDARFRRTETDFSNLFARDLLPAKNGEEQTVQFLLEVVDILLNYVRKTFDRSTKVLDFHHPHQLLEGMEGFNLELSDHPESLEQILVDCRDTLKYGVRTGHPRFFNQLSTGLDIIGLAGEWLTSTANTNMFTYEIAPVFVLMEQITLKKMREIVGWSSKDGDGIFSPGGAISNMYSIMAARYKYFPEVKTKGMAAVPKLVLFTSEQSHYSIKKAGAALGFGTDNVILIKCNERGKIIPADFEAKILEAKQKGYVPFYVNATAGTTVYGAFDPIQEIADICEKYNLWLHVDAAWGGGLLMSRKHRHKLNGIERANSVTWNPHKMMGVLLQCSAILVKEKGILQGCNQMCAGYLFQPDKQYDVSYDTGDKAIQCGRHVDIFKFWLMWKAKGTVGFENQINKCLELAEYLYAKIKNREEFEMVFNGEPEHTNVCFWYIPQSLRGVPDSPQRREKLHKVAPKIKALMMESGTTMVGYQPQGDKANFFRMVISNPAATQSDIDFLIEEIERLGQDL

EC50 (α1β1γ2 GABA-A receptor): 8.3 mM
EC50 (α5β1γ2 GABA-A receptor): 5.4 mM
Ki (human GAD67 (hGAD67)): 7.8 mM
SMILES: O=C(O)[C@@H]1CCCN1 [L-proline]

Reference: publication PMC5104186 (Cell reports, 2016)
